How the values were obtained:
[1] = target: Acetylcholinesterase (Electrophorus electricus, UniProt O42275); assay: Inhibition of electric eel AChE using S-acetylthiocholine iodide as substrate preincubated for 60 mins followed by substrate addition and measured for 5 mins by Ellman's method
[2] = target: Cholinesterase (Equus caballus, UniProt P81908); assay: Inhibition of equine serum BChE using S-butyrylthiocholine iodide as substrate preincubated for 60 mins followed by substrate addition and measured for 5 mins by Ellman's method
[3] = target: T1, Cholinesterase (Homo sapiens, UniProt P06276); assay: Inhibition of human plasma BChE assessed as second order carbamylation rate constant using S-butyrylthiocholine iodide as substrate preincubated for 15 to 60 mins followed by substrate addition by Ellman's method
[4] = target: T1, Cholinesterase; assay: Inhibition of human plasma BChE at 15 to 100 nM using S-butyrylthiocholine iodide as substrate incubated prior to substrate measured for 5 mins by Ellman's method; details: TDE = time-dependent effect
[5] = target: Acetylcholinesterase (Homo sapiens, UniProt P22303); assay: Inhibition of human erythrocyte AChE using S-acetylthiocholine iodide as substrate preincubated for 60 mins followed by substrate addition and measured for 5 mins by Ellman's method
[6] = target: T1, Cholinesterase; assay: Potency index, ratio of test compound to rivastigmine for inhibition of human plasma BChE assessed as second order carbamylation rate constant using S-butyrylthiocholine iodide as substrate
[7] = target: T1, Cholinesterase; assay: Inhibition of human plasma BChE assessed as decarbamylation rate constant using S-butyrylthiocholine iodide as substrate preincubated for 15 to 60 mins followed by substrate addition by Ellman's method
[8] = target: T1, Cholinesterase; assay: Inhibition of human plasma BChE using S-butyrylthiocholine iodide as substrate preincubated for 20 to 60 mins followed by substrate addition and measured for 5 mins by Ellman's method
[9] = target: T1, Cholinesterase; assay: Inhibition of human plasma BChE using S-butyrylthiocholine iodide as substrate preincubated for 60 mins followed by substrate addition and measured for 5 mins by Ellman's method
[10] = target: T1, Cholinesterase; assay: Inhibition of human plasma BChE at 2.5 to 25 nM using S-butyrylthiocholine iodide as substrate incubated prior to substrate addition and measured for 5 mins by Ellman's method; details: TDE = time-dependent effect

Cholinesterase (Equus caballus, UniProt P81908), sequence (P81908 whole entry): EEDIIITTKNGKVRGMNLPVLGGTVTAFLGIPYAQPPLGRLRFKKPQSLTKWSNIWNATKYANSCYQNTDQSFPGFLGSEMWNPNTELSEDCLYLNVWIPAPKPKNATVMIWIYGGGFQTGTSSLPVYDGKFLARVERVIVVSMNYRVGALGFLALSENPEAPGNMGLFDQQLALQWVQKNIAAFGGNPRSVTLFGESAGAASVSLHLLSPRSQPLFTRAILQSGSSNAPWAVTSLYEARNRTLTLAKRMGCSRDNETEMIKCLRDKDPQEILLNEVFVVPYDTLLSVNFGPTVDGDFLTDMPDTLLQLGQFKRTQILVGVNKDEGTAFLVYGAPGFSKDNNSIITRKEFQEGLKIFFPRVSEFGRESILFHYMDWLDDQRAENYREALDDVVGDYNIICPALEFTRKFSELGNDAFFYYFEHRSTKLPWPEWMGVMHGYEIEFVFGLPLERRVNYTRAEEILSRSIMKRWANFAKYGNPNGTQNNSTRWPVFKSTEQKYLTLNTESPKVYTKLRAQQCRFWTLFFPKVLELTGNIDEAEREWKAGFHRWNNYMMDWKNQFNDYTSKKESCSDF
T1 sequence (P06276 whole entry): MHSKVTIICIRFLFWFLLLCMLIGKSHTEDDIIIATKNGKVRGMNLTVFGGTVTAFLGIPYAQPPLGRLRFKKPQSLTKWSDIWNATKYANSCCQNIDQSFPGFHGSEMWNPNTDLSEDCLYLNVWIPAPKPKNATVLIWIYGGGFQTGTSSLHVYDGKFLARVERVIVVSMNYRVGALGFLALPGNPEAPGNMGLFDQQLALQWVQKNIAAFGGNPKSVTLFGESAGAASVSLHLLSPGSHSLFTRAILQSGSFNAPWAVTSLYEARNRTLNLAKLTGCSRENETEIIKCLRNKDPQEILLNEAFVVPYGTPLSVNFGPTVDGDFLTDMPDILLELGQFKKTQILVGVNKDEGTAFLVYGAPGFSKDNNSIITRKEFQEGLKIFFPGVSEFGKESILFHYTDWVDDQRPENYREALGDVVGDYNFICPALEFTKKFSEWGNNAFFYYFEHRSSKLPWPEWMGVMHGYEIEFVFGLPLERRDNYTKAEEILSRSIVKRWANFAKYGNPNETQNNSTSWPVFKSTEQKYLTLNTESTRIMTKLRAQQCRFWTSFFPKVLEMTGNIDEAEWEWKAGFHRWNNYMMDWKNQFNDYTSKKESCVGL
Acetylcholinesterase (Electrophorus electricus, UniProt O42275), sequence (O42275 whole entry): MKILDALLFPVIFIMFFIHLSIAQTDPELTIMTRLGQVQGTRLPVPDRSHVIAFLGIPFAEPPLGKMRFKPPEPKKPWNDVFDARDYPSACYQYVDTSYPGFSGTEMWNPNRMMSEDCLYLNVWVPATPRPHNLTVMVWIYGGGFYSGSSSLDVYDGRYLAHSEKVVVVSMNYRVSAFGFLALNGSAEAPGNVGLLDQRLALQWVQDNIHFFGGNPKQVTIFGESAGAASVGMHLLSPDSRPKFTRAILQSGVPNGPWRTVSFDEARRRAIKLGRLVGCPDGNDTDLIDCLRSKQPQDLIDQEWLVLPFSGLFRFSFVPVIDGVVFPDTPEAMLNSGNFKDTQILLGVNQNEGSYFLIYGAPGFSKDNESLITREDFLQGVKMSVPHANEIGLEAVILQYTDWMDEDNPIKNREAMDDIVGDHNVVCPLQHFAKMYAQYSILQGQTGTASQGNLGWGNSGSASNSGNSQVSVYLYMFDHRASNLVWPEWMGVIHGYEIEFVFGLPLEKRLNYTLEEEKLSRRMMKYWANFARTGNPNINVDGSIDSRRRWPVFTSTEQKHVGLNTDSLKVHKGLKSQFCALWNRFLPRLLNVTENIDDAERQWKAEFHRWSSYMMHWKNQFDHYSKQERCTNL
Acetylcholinesterase (Homo sapiens, UniProt P22303), sequence (P22303 whole entry): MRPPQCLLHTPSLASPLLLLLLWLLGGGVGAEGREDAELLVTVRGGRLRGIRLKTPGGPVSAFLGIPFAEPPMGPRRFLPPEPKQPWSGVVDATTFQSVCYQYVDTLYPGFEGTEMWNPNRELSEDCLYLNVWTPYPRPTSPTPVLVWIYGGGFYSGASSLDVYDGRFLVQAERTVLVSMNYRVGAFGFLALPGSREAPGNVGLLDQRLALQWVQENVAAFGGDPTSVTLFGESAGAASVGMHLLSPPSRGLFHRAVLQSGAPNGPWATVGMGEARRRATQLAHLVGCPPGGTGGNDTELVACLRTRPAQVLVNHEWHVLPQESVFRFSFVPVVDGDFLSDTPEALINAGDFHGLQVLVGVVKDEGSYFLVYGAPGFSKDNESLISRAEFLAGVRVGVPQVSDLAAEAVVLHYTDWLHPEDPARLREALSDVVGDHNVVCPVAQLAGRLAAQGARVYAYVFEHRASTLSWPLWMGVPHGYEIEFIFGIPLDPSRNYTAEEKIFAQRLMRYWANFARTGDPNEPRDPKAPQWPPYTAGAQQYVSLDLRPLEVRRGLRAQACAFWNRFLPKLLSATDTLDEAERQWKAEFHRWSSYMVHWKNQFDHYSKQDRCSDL

| SMILES | IC50 [1] | IC50 [2] | further results |
| --- | --- | --- | --- |
| CN(C)C(=O)Oc1cccc(C(O)CNC(C)(C)c2ccccc2)c1 (stereo not drawn) | 7.12 µM | 0.303 µM |  |
| CN(C)C(=O)Oc1cccc(C(O)CNC2CCCC2)c1 (stereo not drawn) | 1.39 µM | 0.057 µM |  |
| CN(C)C(=O)Oc1cccc(C(O)CNc2ccc(I)cc2)c1 (stereo not drawn) | 28.9 µM | 0.381 µM |  |
| C#Cc1cccc(NCC(O)c2cccc(OC(=O)N(C)C)c2)c1 (stereo not drawn) | 70.5 µM | 0.154 µM |  |
| CN(C)C(=O)Oc1cccc(C(O)CN2CCCC2)c1 (stereo not drawn) | 3.15 µM | 0.179 µM |  |
| CN(C)C(=O)Oc1ccc(C(O)CNC2CCCCC2)cc1 (stereo not drawn) | 0.655 µM | 0.027 µM | K [3]: 206 ×10⁴ /M/min; inhibition [4]: Tde; IC50 [5]: 266 µM; Ratio [6]: 20; K [7]: 14.8 ×10⁻³ /min; inhibition [8]: Dose-dependent effect; IC50 [9]: 10.6 µM |
| CN(C)C(=O)Oc1cccc(C(O)CNc2ccc(F)cc2)c1 (stereo not drawn) | 45.4 µM | 0.194 µM |  |
| CCN(C)C(=O)Oc1cccc([C@H](C)N(C)C)c1 |  |  | K [3]: 33.3 ×10⁴ /M/min; K [7]: 2.3 ×10⁻³ /min |
| CCC(C)(C)NCC(O)c1ccc(OC(=O)N(C)C)cc1 (stereo not drawn) | 15.9 µM | 1.57 µM |  |
| CN(C)C(=O)Oc1cccc(C(O)CNC(C)(C)C)c1 (stereo not drawn) | 6.08 µM | 0.383 µM |  |
| CN(C)C(=O)Oc1cccc(C(O)CN2CCCCC2)c1 (stereo not drawn) | 3.74 µM | 0.097 µM |  |
| CN(C)C(=O)Oc1cccc(C(O)CNc2ccccc2)c1 (stereo not drawn) | 67.5 µM | 0.282 µM |  |
| CN(C)C(=O)Oc1ccc(C(O)CNC(C)(C)C)cc1 (stereo not drawn) | 15 µM | 5.37 µM |  |
| CN(C)C(=O)Oc1cccc(C(O)CN2CCOCC2)c1 (stereo not drawn) | > 100 µM | 2.19 µM |  |
| CN(C)C(=O)Oc1ccc(C(O)CN2CCCCC2)cc1 (stereo not drawn) | 3.51 µM | 0.245 µM |  |
| CCC(C)(C)NCC(O)c1cccc(OC(=O)N(C)C)c1 (stereo not drawn) | 4.15 µM | 0.18 µM |  |
| CN(C)C(=O)Oc1cccc(C(O)CNC2CCCCC2)c1 (stereo not drawn) | 1.87 µM | 0.008 µM | inhibition [10]: Tde; K [3]: 1110 ×10⁴ /M/min; IC50 [5]: 792 µM; Ratio [6]: 10; K [7]: 18.9 ×10⁻³ /min; inhibition [8]: Dose-dependent effect; IC50 [9]: 2.2 µM |

Source: ChEMBL document CHEMBL4627270, “Design, synthesis and biological evaluation of novel carbamates as potential inhibitors of acetylcholinesterase and butyrylcholinesterase” (Bioorg Med Chem, 2020)
